Data reported in patent US10188617B2, “Modulation of cellular DNA repair activity to intercept malignancy” (THE BOARD OF TRUSTEES OF THE LELAND STANFORD JUNIOR …, priority 2013, dated 2019).

Tests used:
[1] = system: BER of ODD in MCF7 cells (wild-type BRCA1, BER-proficient); assay: DNA repair assay (oxidatively damaged GFP reporter gene), follow-up; type: cell-based, human; conditions: 20 μM, MCF7, vs vehicle
Protocol: (§1) Human breast cancer cell lines that were deficient in BER (HCC1143, MDAMB468, HCC1937, and SUM149) or proficient in BER (BT474 and MCF7) were cultured according to American Type Culture Collection guidelines, with the exception of SUM149, which was cultured according to Asterand plc guidelines. Brca1^+/+ and Brca1^-/- mouse mammary epithelial […] previously described. Cells were treated with DMSO (vehicle control) or acetohexamide or benserazide as indicated for 24 hours at 37° C. and 5% CO2. The DNA repair assay was carried out as described in the examples below. Where indicated, BER (base excision mode of DNA repair) activity was expressed relative to the control (DMSO).

[2] = system: BER of ODD in BT474 cells (wild-type BRCA1); assay: as above; type: cell-based, human; conditions: 20 μM, BT474, vs vehicle
Protocol: as §1

[3] = system: BER of ODD in HCC1937 cells (mutant BRCA1); assay: as above; type: cell-based, human; conditions: 20 μM, HCC1937, vs vehicle
Protocol: as §1

[4] = system: BER of ODD in SUM149 cells (mutant BRCA1, BER-defective); assay: as above; type: cell-based, human
Protocol: as §1

[5] = system: BRCA1-mutant/deficient cells; assay: Soft agar colony formation assay (in vitro tumorigenesis); type: cell-based, human; conditions: 20 μM benserazide vs 1 μM tamoxifen and vehicle
Protocol: BRCA1 wild-type (MCF7) and mutant (HCC1937) cells (FIG. 14A) as well as MCF7 cells stably transduced with shRNA to BRCA1 or non-targeting control (FIG. 14B) were treated with vehicle control, 20 μM benserazide, or 1 μM tamoxifen and subjected to the soft agar colony formation assay, i.e. the standard assay for in vitro tumorigenesis. Colony formation represents tumorigenic potential. Tamoxifen is the current FDA-approved chemoprevention agent for breast cancer and a therapeutically-equivalent dose was used for comparison.

[6] = system: BRCA1 wild-type (MCF7) and mutant (HCC1937) cells; assay: Trypan blue exclusion assay (cell viability); type: cell-based, human; conditions: treated simultaneously with the colony formation assay
Description: In FIG. 14C, BRCA1 wild-type (MCF7) and mutant (HCC1937) cells were simultaneously treated and then analyzed for cell viability by the trypan blue exclusion assay.

HCC1937 cells = assay: Mouse xenograft model of in vivo tumorigenesis (chemoprevention)
Protocol: For in vivo tumorigenesis, we utilized a mouse xenograft model that began treatment with the DNA repair-activating agent 24 hours prior to inoculation of HCC1937 cells into the mammary fat pad. Treatment with vehicle control, 50 mg/kg benserazide, or 250 mg/kg benserazide continued daily for up to 60 days while monitoring for tumor formation by palpitation. After the 60 days (i.e. study endpoint), serum was collected for analysis of 8oxodG levels, tumors (if present) were excised and weighed, and anatomy was analyzed for metastasis.

[7] = study endpoint 60 days, dose response

NC(CO)C(=O)NNCc1ccc(O)c(O)c1O (stereo not shown) [benserazide, 2-amino-3-hydroxy-N′-[(2,3,4-trihydroxyphenyl)methyl]propanehydrazide]
BER [1]: no effect on BER | BER [2]: no effect on BER | BER [3]: statistically significant increase in BER | BER ([4]; 20 μM, SUM149, vs vehicle): statistically significant increase in BER | repair of oxidatively damaged GFP reporter gene, dose-response ([4]; SUM149PT cells, 24 hours treatment): dose-response increase in repair of an oxidatively-damaged GFP reporter gene | in vitro tumorigenic potential (colony formation) [5]: prevented in vitro tumorigenesis | in vitro tumorigenic potential (colony formation) ([5]; listed as Benserazide): superior to tamoxifen at reducing in vitro tumorigenic potential | cell viability (trypan blue exclusion) [6]: not due to a decrease in cell viability | tumor formation over time (HCC1937 cells; 50 or 250 mg/kg daily up to 60 days): delayed tumor formation over time | percentage of tumor-free mice (HCC1937 cells; 50 or 250 mg/kg daily up to 60 days, started 24 hours prior to inoculation): increased the percentage of tumor-free mice in a dose-response manner | metastasis (HCC1937 cells; both concentrations (50 and 250 mg/kg), unlike vehicle control): prevented metastasis | serum levels of 8oxodG (HCC1937 cells; [7]): increase serum levels of 8oxodG | tumor weights (HCC1937 cells; [7]): decrease tumor weights
